Values joined by “and” are separate entries in the source; they are usually repeats but may differ in a detail not shown here. Identical values can stand only once.
How the values were obtained:
[1] = target: T1, Peptidyl-prolyl cis-trans isomerase A (Homo sapiens, UniProt P62937); experiment: ESI-MS Assay
Description: Electrospray mass spectrometry assay is a immunophilin-ligand binding assay which allows us to rapidly probe the affinity of potential inhibitors for CypA which rely on the use of soft-ESI conditions to preserve noncovalent interactions between protein and ligand.

[2] = target: T1, Peptidyl-prolyl cis-trans isomerase A; experiment: Fluorescence Assay
Description: The promising ligand from the results obtained from ESI-MS assay are subjected to fluorescence in vitro assay. The fluorescence assay takes advantage of the presence of a single tryptophan residue (Trp121) located close to the active site of CypA.

[3] = target: T1, Peptidyl-prolyl cis-trans isomerase A; experiment: PPIase Assay
Description: The promising ligand from the results obtained from ESI-MS assay are subjected to PPIase in vitro assay. The PPIase assay assesses the abil9ity of ligands to inhibit the PPIase activity of CypA.

T1 sequence (P62937 whole entry): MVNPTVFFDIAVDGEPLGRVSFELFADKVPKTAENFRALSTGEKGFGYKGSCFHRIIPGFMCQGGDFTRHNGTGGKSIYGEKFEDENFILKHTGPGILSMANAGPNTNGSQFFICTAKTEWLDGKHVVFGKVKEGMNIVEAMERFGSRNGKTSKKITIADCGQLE

SMILES: COC(=O)[C@H](CCCCNS(=O)(=O)c1cccc2c(N(C)C)cccc12)C1C(=O)C[C@@H]2C1=CC(=O)CC2(C)C (some centres undefined) [Cyclophilin Inhibitor, 3f]
- Kd [1]: 133 µM

SMILES: COC(=O)[C@H](CCCCN)C1C(=O)CC2C1=CC(=O)CC2(C)C (some centres undefined) [Cyclophilin Inhibitor, 15]
- Kd [1]: 72.6 µM
- Kd [2]: 15.9 µM and > 50 µM

SMILES: COC(=O)[C@H](CCCN=C(N)N[N+](=O)[O-])C1C(=O)CC2C1=CC(=O)CC2(C)C (some centres undefined) [Cyclophilin Inhibitor, 3c]
- Kd [1]: 31.9 µM
- Kd [2]: 29.6 µM
- Ki [3]: > 100 µM

SMILES: COC(=O)[C@H](CCCCNC(C)=O)C1C(=O)CC2C1=CC(=O)CC2(C)C (some centres undefined) [Cyclophilin Inhibitor, 3d]
- Kd [1]: 85.1 µM
- Ki [3]: > 100 µM

SMILES: COC(=O)[C@H](CCCCNS(=O)(=O)c1cccc2c(N(C)C)cccc12)C1C(=O)CC2C1=CC(=O)CC2(C)C (some centres undefined) [Cyclophilin Inhibitor, 3e]
- Kd [1]: 113 µM
- Kd [2]: 21.9 µM
- Ki [3]: 207 µM

SMILES: COC(=O)[C@H](CCCCNC(=O)OCc1ccccc1)C1C(=O)CC2C1=CC(=O)CC2(C)C (some centres undefined) [Cyclophilin Inhibitor, 3a]
- Kd [1]: 128 µM
- Kd [2]: 22.8 µM
- Ki [3]: > 100 µM

Source: BindingDB's records for doi:10.1002/cbic.201000413 (The University of Edinburgh, 2011)
